For 10 compounds, viability, T/C and IC50 results are on record in PubChem BioAssay AID1963834 (Molecular Pharmacology Branch, DTP, NCI, 2024).

This assay deals with 873145-292-R-J1-PDC complex spheroid viability. Briefly: Anticancer human tumor 873145-292-R-J1-PDC patient-derived renal clear cell carcinoma cell line growth inhibition [POLQ]. Conditions: for viability, T/C: stronger effect = lower value; for IC50: curve of compound. As for the experimental part: Multicellular complex tumor spheroid response to Polymerase (POL) inhibitors (novobiocin, ART-558, RP6685) in combination with a variety of drugs and investigational agents in selected tumor cell lines
The POL inhibitors (novobiocin, ART-558, and RP6685) were evaluated both individually and in combination with standard of care and investigational anticancer small molecules within a complex spheroid model of solid tumors. . Complex spheroids include a stromal component modeled by human endothelial cells (HUVEC) and fibroblasts modeled by human mesenchymal stem cells (MSCs). The concentration ranges selected for each drug and investigational agent were based upon clinically achievable concentrations if the clinical Cmax of the agent was known.
Compounds. The drugs and investigational agents: novobiocin (NSC847541), ART-558 (NSC835418), RP-6685 (NSC848927), peposertib (NSC802822), ceralasertib (NSC780249), elimusertib (NSC800525), camonsertib (NSC841442), AZD-1390 (NSC803789), olaparib (NSC753686), talazoparib (NSC767125), rucaparib (NSC756644), sotorasib (NSC818433), MRTX-1133 (NSC836407), SN-38 (NSC673596), topotecan (NSC609699), epotoside (NSC141540), doxorubicin (NSC123127), gemcitabine (NSC613327), 5-fluorouracil (NSC19893), paclitaxel (NSC125973), vemurafenib (NSC761431), MSA-2 (NSC828583), SN-011 (NSC837082), adavosertib (NSC754352), prexasertib (NSC758257), carboplatin (NSC241240) and oxaliplatin (NSC266046), were obtained from the National Cancer Institute (NCI) Developmental Therapeutics Program Chemical Repository (21). The FDA-approved anticancer drug set is available from the Developmental Therapeutics Program at https://dtp.cancer.gov/organization/dscb/obtaining/. […] The stock solutions were prepared in dimethyl sulfoxide (DMSO, Sigma-Aldrich, St. Louis, MO, cat. D2650), except for the platinum compounds which were prepared in saline (Quality Biological, Gaithersburg, MD, cat. 114-055-101), at 800-fold the tested concentration and stored at -70 degrees C prior to their use. All drugs and investigational agents were tested over a range starting from a high concentration at or near the clinical Cmax and decreasing in half-log increments. If the clinical Cmax for an agent had not been determined, the highest concentration tested was 10 microM, except for SN-38, which was tested at a high concentration of 1 microM.
Cell Culture. All cells were maintained in an incubator at 37 degrees C and 5% CO2 with 95% humidity. The PDC lines were cultured according to standard operating procedures established by the NCI PDMR (https://pdmr.cancer.gov). Table 3 of the manuscript, lists the cell lines along with the number of the three cell types plated to form the mct-spheroids and media for tumor cell growth. After thawing, all PDC lines, except 997537-175-T-J1-PDC and 415267-285-R-J2-PDC, were cultured in Matrigel-coated flasks prepared with a working solution of 1X Ham's F-12 nutrient mix, without supplementation (Thermo Fisher Scientific, cat. 11765054), 100 U/mL penicillin-streptomycin (Thermo Fisher Scientific, cat. 15140122), and 2.5% Matrigel (Corning Inc., Corning, NY, cat. 354248) for the first three passages. The two PDC lines 997537-175-T-J1-PDC and 415267-285-R-J2-PDC were cultured on uncoated flasks. The 857933-349-R-J2-PDC line was cultured in 6C/Colon 1B media containing advanced DMEM/F-12 (Thermo Fisher Scientific, cat. 12634028), 10 mM HEPES (Thermo Fisher Scientific, cat. 15630080), 1X GlutaMAX supplement (Thermo Fisher Scientific, cat. 35050061), 0.1 mg/mL primocin (InvivoGen, San Diego, CA, cat. ant-pm-2), 10% defined fetal bovine serum, heat inactivated (HyClone Laboratories Inc., Logan, UT, cat. SH30070.03HI), 50% L-WRN conditioned media (ATCC, cat. CRL-3276), 1.25 mM N-Acetyl-L-cysteine (Sigma-Aldrich, cat. A9165), 10 mM nicotinamide (Sigma-Aldrich, cat. N0636), 1X B-27 supplement (Thermo Fisher Scientific, cat. 17504044), 1X N-2 supplement (Thermo Fisher Scientific, cat. […]

Several values for one entry are separate records, joined by “and”; a condition that tells them apart may be missing. Equal values may be shown once.
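Further: spheroids exposed to compounds for 7 days before viability readout.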
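Wherever viability, T/C is given: luminescence signal used as surrogate for viable cell content.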

As a reminder, the viability, T/C is the result in the treated group divided by that in the control group, in per cent. In general, IC50 refers to the point on the concentration scale where inhibition reaches its midpoint. With `C=CC(=O)N1CCN(c2nc(=O)n(-c3c(C)ccnc3C(C)C)c3nc(-c4c(O)cccc4F)c(F)cc23)C(C)C1` (stereo not given), the half-inhibitory concentration (IC50) is above 10000 nM. Further, the viability, T/C (compound 0.0316 µM) is 98.3% and 103% and 94.9%. In addition, where the note is “compound 0.1 µM”, the viability, T/C was 99.5% and 99.4% and 98.3%. For the same compound, where the note is “compound 0.316 µM”, the viability, T/C was 107% and 125% and 109%. Besides, the viability, T/C (compound 1 µM) was 118% and 113% (2×). For the same compound, the viability, T/C (compound 3.16 µM) was 137% and 134% and 116%. Further, the viability, T/C (compound 10 µM) was 121% and 145% and 124%.

Turning to `C=CCn1c(=O)c2cnc(Nc3ccc(N4CCN(C)CC4)cc3)nc2n1-c1cccc(C(C)(C)O)n1`, the half-maximal inhibitory concentration (IC50) is above 1000 nM. The viability, T/C (compound 0.00316 µM) is 106% and 97.8% and 112%. For the same compound, the viability, T/C (compound 0.01 µM) was 95.9% and 105% and 90.5%. Besides, for the setting “compound 0.0316 µM”, the viability, T/C was 104% and 92.5% and 97.3%. Moreover, the viability, T/C (compound 0.1 µM) was 101% and 97.8% and 97.9%. Where the note is “compound 0.316 µM”, the viability, T/C is 76.4% and 84.9% and 85.7%. Besides, the viability, T/C (compound 1 µM) was 74.7% and 77.3% and 80%.

Take `CC(=O)O[C@H]1C(=O)[C@@]2(C)[C@H]([C@H](OC(=O)c3ccccc3)[C@]3(O)C[C@H](OC(=O)[C@H](O)[C@@H](NC(=O)c4ccccc4)c4ccccc4)C(C)=C1C3(C)C)[C@]1(OC(C)=O)CO[C@@H]1C[C@@H]2O`: the 50% inhibitory concentration (IC50) is above 3000 nM. Also, under “compound 0.00949 µM”, the viability, T/C is 79.4% and 83.2% and 84.7%. The viability, T/C (compound 0.03 µM) is 83.6% and 72.1% and 70.3%. Besides, the viability, T/C (compound 0.0949 µM) was 74% and 72.5% and 60.7%. Also, the viability, T/C (compound 0.3 µM) is 70.2% and 65.1% and 65.8%. Moreover, where the note is “compound 0.949 µM”, the viability, T/C is 69.9% and 66.2% and 67.9%. Also, the viability, T/C (compound 3 µM) was 63.5% and 72.9% and 57.8%.

Take `CC(C)n1c(=O)n(C)c2cnc3cc(F)c(-c4ccc(OCCCN5CCCCC5)nc4)cc3c21`: the IC50 was above 10000 nM. The viability, T/C (compound 0.0316 µM) is 97.8% and 99.3% and 112%. Besides, under “compound 0.1 µM”, the viability, T/C is 103% and 100% and 93.3%. The viability, T/C (compound 0.316 µM) is 94% and 101% and 112%. For the same compound, the viability, T/C (compound 1 µM) is 92.8% and 108% and 100%. In addition, for the setting “compound 3.16 µM”, the viability, T/C was 94.8% (2×) and 96.1%. Further, the viability, T/C (compound 10 µM) is 77.7% and 95.8% and 91.3%.

As to `CC1COCCN1c1cc(-c2ccnn2C)c2ccnc(-c3ccn[nH]3)c2n1` (stereo not given), the IC50 was 1210 nM and 1200 nM and > 10000 nM. Further, for the setting “compound 0.0316 µM”, the viability, T/C was 88.9% and 83.1% and 97%. Moreover, the viability, T/C (compound 0.1 µM) is 77.3% and 74.3% and 90%. Moreover, the viability, T/C (compound 0.316 µM) was 67.5% and 67.3% and 68.5%. Also, the viability, T/C (compound 1 µM) was 51.8% and 50.8% and 56.1%. Besides, the viability, T/C (compound 3.16 µM) is 40% and 41.9% and 52.3%. Also, where the note is “compound 10 µM”, the viability, T/C was 39.3% and 41.4% and 57.8%.

`CC1COCCN1c1cc(C2(S(C)(=N)=O)CC2)nc(-c2ccnc3[nH]ccc23)n1` (stereo not given): the concentration for half-maximal inhibition (IC50) is above 10000 nM. For the same compound, for the setting “compound 0.0316 µM”, the viability, T/C was 91.7% and 96% and 106%. Moreover, the viability, T/C (compound 0.1 µM) is 97.2% and 92.7% and 96.5%. In addition, where the note is “compound 0.316 µM”, the viability, T/C was 113% and 91.9% and 99.5%. For the same compound, under “compound 1 µM”, the viability, T/C is 88.5% and 94.4% and 104%. Moreover, the viability, T/C (compound 3.16 µM) is 81.9% and 85.5% and 81.5%. For the setting “compound 10 µM”, the viability, T/C was 58% and 64.2% and 54.1%.

In the case of `CCCS(=O)(=O)Nc1ccc(F)c(C(=O)c2c[nH]c3ncc(-c4ccc(Cl)cc4)cc23)c1F`, the IC50 was above 10000 nM. Moreover, under “compound 0.0316 µM”, the viability, T/C was 113% and 104% and 102%. Besides, under “compound 0.1 µM”, the viability, T/C is 96.8% and 107% and 99.6%. The viability, T/C (compound 0.316 µM) is 109% and 103% and 107%. For the same compound, the viability, T/C (compound 1 µM) is 95.2% and 107% and 104%. Further, the viability, T/C (compound 3.16 µM) was 109% and 98.7% and 92.9%. For the same compound, where the note is “compound 10 µM”, the viability, T/C is 76.7% and 72.3% and 60.6%.

For `CC[C@@]1(O)C(=O)OCc2c1cc1n(c2=O)Cc2cc3c(CN(C)C)c(O)ccc3nc2-1`, the IC50 is > 100 nM and 95.5 nM. Further, the viability, T/C (compound 0.000316 µM) was 96.5% and 108% and 99.8%. The viability, T/C (compound 0.001 µM) was 94.6% and 99.2% and 92.7%. Besides, the viability, T/C (compound 0.00316 µM) was 93.4% and 95.2% and 101%. In addition, the viability, T/C (compound 0.01 µM) was 92.8% and 107% and 103%. For the same compound, under “compound 0.0316 µM”, the viability, T/C is 84.9% and 95.7% and 77.4%. Where the note is “compound 0.1 µM”, the viability, T/C was 59.5% and 63.6% and 48.9%.

For the compound `CCc1c2c(nc3ccc(O)cc13)-c1cc3c(c(=O)n1C2)COC(=O)[C@]3(O)CC`, the IC50 was 62.3 nM and 99.3 nM and 48.2 nM. Besides, where the note is “compound 0.00316 µM”, the viability, T/C is 94.8% and 105% and 94%. Where the note is “compound 0.01 µM”, the viability, T/C was 77.7% and 88.3% and 80.5%. In addition, the viability, T/C (compound 0.0316 µM) was 50.6% and 60% and 54.1%. Moreover, the viability, T/C (compound 0.1 µM) is 49.2% and 52.5% and 41.1%. In addition, under “compound 0.316 µM”, the viability, T/C is 37.8% and 45.3% and 34.1%. The viability, T/C (compound 1 µM) is 30.3% and 37.3% and 29.6%.

With `CNCc1ccc(-c2[nH]c3cc(F)cc4c3c2CCNC4=O)cc1`, the IC50 is above 10000 nM. For the same compound, the viability, T/C (compound 0.0316 µM) is 108% and 93.3% and 101%. For the same compound, for the setting “compound 0.1 µM”, the viability, T/C is 101% and 96% and 102%. Further, under “compound 0.316 µM”, the viability, T/C is 102% and 103% and 97.2%. Besides, for the setting “compound 1 µM”, the viability, T/C was 103% and 91.5% and 93.2%. In addition, the viability, T/C (compound 3.16 µM) was 94.7% and 95.1% and 93.3%. Moreover, the viability, T/C (compound 10 µM) was 99.7% and 98% and 92.6%.
